Results published in ChEMBL document CHEMBL1128401, “Structure-activity relationships in the 8-amino-6,7,8,9-tetrahydro-3H-benz[e]indole ring system. 1. Effects of substituents in the aromatic system on serotonin and dopamine receptor subtypes” (J Med Chem, 1995).
The source made the active and inactive calls. The calls are words filed in the database; no cut-off is given here.

What was measured:
[1] = tmax in hours at a po dose of 40.0(pmol/g/h).; assay type: ADME, organism-based; conditions: in vivo
D(3) dopamine receptor [2] = molecular target: T1, D(3) dopamine receptor (Rattus norvegicus, UniProt P19020); experiment: Binding affinity against Dopamine receptor D3 expressed in CHO-K1 cells, using [3H]spiperone as the radioligand.; assay type: cell-based
T1 sequence (P19020 whole entry): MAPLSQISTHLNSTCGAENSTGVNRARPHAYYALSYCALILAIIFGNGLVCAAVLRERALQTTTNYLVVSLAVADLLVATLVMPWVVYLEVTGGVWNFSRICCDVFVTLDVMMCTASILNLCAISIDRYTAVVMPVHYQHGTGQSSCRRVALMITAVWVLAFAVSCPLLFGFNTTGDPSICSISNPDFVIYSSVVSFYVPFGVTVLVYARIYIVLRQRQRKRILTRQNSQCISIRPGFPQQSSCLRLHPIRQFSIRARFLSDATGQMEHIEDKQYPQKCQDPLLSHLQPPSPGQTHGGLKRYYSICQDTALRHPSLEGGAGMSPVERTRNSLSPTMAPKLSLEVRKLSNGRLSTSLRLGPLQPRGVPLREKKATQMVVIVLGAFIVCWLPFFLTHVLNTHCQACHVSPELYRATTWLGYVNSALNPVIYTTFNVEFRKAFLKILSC

[3] = tmax in hours at a iv dose of 5.0(pmol/g/h).; assay type: ADME, organism-based; conditions: in vivo
Rattus norvegicus [4] = experiment: Bioavailability in male Sprague-Dawley rats, after the iv administration at a dose of 5.0(pmol/g/h); assay type: ADME, organism-based; conditions: in vivo
D(2) dopamine receptor [5] = molecular target: T2, D(2) dopamine receptor (Rattus norvegicus, UniProt P61169); experiment: Binding affinity against Dopamine receptor D2 expressed in CHO-K1 cells, using [3H]U-86170 as the radioligand.; assay type: cell-based
T2 sequence (P61169 whole entry): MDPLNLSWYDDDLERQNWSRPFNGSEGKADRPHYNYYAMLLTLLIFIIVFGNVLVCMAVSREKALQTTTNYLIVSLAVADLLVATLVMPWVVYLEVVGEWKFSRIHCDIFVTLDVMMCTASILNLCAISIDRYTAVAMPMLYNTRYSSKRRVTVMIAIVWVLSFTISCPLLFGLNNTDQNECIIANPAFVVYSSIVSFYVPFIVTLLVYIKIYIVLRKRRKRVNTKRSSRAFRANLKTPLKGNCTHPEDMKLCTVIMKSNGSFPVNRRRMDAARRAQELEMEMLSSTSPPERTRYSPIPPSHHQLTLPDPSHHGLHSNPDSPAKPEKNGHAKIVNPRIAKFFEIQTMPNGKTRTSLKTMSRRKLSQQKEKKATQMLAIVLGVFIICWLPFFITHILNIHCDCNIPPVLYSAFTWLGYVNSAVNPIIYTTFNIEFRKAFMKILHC

[6] = Rat bioavailability after iv/po administration, expressed as %; assay type: ADME, organism-based; conditions: in vivo
Rattus norvegicus [7] = experiment: The Compound was tested in vivo for DOPA accumulation in hemispheres (cortex) against reserpine-pretreated rats; P=significant partial reduction only at the highest dose tested (12.5).; assay type: functional, organism-based
Rattus norvegicus [8] = experiment: Bioavailability in male Sprague-Dawley rats, after the po administration at a dose of 40.0(pmol/g/h); assay type: ADME, organism-based; conditions: in vivo
[9] = molecular target: T3, 5-hydroxytryptamine receptor 1A (Rattus norvegicus, UniProt P19327); experiment: Binding affinity against 5-hydroxytryptamine 1A receptor from CHO-K1 cells, using [3H]8-OH-DPAT as the radioligand.; assay type: cell-based
T3 sequence (P19327 whole entry): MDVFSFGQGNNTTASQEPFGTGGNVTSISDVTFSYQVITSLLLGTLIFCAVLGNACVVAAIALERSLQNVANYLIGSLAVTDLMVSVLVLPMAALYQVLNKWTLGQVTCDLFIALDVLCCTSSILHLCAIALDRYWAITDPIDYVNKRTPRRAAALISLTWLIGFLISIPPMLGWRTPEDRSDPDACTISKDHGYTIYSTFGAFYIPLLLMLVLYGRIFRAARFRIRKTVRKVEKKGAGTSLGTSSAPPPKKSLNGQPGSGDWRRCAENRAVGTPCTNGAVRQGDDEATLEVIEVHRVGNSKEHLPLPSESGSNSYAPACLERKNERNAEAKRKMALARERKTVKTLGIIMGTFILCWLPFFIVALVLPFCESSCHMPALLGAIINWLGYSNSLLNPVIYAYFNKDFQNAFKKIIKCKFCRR

[10] = molecular target: 5-hydroxytryptamine receptor 1D (Homo sapiens, UniProt P28221); experiment: Binding affinity against 5-hydroxytryptamine 1D receptor alpha expressed in CHO-K1 cells, using [3H]-5-HT as the radioligand.; assay type: cell-based; conditions: read-out: Ki
Chain of 5-hydroxytryptamine receptor 1D (P28221 whole entry): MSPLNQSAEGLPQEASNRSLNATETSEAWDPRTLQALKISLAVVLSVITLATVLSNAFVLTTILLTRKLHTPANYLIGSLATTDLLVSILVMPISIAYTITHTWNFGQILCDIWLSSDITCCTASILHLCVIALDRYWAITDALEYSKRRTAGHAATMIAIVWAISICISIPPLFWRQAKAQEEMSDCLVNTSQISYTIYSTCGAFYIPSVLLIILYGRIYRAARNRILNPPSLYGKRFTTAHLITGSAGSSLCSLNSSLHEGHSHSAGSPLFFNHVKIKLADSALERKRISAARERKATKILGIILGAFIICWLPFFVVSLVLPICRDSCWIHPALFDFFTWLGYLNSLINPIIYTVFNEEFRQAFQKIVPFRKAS

[11] = molecular target: 5-hydroxytryptamine receptor 1B (Homo sapiens, UniProt P28222); experiment: Binding affinity against 5-hydroxytryptamine 1D receptor beta expressed in CHO-K1 cells, using [3H]5-HT as the radioligand.; assay type: cell-based
Chain of 5-hydroxytryptamine receptor 1B (P28222 whole entry): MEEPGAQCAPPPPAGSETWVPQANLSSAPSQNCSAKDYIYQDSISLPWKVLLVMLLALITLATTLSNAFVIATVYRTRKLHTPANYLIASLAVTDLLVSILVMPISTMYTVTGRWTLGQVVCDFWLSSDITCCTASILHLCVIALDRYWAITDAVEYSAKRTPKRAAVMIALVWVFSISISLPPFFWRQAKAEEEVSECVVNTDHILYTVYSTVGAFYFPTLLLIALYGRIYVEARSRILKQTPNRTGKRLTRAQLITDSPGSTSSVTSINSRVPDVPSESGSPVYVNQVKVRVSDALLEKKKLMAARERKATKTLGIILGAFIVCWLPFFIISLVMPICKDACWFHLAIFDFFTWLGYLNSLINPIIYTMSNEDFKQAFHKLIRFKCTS

Rattus norvegicus [12] = experiment: The Compound was tested in vivo for DOPA accumulation in hemispheres (cortex) against reserpine-pretreated rats;I= inactive at the highest dose tested (25); assay type: functional, organism-based
Rattus norvegicus [13] = experiment: In vivo for 5-HTP accumulation in corpus striatum against reserpine-pretreated rats.; assay type: functional
Rattus norvegicus [14] = experiment: In vivo for DOPA accumulation in limbic system against reserpine-pretreated rats.; assay type: functional
Rattus norvegicus [15] = experiment: Compound was tested in vivo for 5-HTP accumulation in hemispheres (cortex) against reserpine-pretreated rats; P=significant partial reduction only at the highest dose tested (12.5).; assay type: functional, organism-based
Rattus norvegicus [16] = experiment: In vivo for DOPA accumulation in corpus striatum against reserpine-pretreated rats.; assay type: functional
Rattus norvegicus [17] = experiment: In vivo for 5-HTP accumulation in limbic system against reserpine-pretreated rats.; assay type: functional
Rattus norvegicus [18] = experiment: The Compound was tested in vivo for DOPA accumulation in hemispheres (cortex) against reserpine-pretreated rats; I= inactive at the highest dose tested (12.5).; assay type: functional, organism-based
[19] = Bioavailability in rat plasma following iv/po dose; assay type: ADME, organism-based
Rattus norvegicus [20] = experiment: Bioavailability in male Sprague-Dawley rats, after the po administration at a dose of 10.0(pmol/g/h); assay type: ADME, organism-based; conditions: in vivo
Rattus norvegicus [21] = experiment: Bioavailability in male Sprague-Dawley rats, after the iv administration at a dose of 4.0(pmol/g/h); assay type: ADME, organism-based; conditions: in vivo
[22] = tmax in hours at a po dose of 10.0(pmol/g/h).; assay type: ADME, organism-based; conditions: in vivo, 10 pmol/g/h
[23] = Ratio of the 5-HTP accumulation decrease in limbic regions after oral and subcutaneous administration in rat.; assay type: functional, Limbic system
[24] = tmax in hours at a iv dose of 4.0(pmol/g/h).; assay type: ADME, organism-based; conditions: in vivo
Rattus norvegicus [25] = experiment: The Compound was tested in vivo for DOPA accumulation in limbic system against reserpine-pretreated rats; P=significant partial reduction only at the highest dose tested (50).; assay type: functional, organism-based
Rattus norvegicus [26] = experiment: Compound was tested in vivo for DOPA accumulation in corpus striatum against reserpine-pretreated rats; P=significant partial reduction only at the highest dose tested (50).; assay type: functional, organism-based
Rattus norvegicus [27] = experiment: Compound was tested in vivo for 5-HTP accumulation in hemispheres (cortex) against reserpine-pretreated rats;I= inactive at the highest dose tested (50).; assay type: functional, organism-based
Rattus norvegicus [28] = experiment: The Compound was tested in vivo for DOPA accumulation in hemispheres (cortex) against reserpine-pretreated rats;I= inactive at the highest dose tested (50).; assay type: functional, organism-based
Rattus norvegicus [29] = experiment: Compound was tested in vivo for 5-HTP accumulation in corpus striatum against reserpine-pretreated rats;I= inactive at the highest dose tested (50).; assay type: functional, organism-based
Rattus norvegicus [30] = experiment: Compound was tested in vivo for 5-HTP accumulation in limbic system against reserpine-pretreated rats;I=inactive at the highest dose tested (50).; assay type: functional, organism-based
Rattus norvegicus [31] = experiment: Compound was tested in vivo for DOPA accumulation in corpus striatum against reserpine-pretreated rats;P= significant partial reduction only at the highest dose tested (50).; assay type: functional, organism-based
Rattus norvegicus [32] = experiment: Compound was tested in vivo for 5-HTP accumulation in limbic system against reserpine-pretreated rats;P= significant partial reduction only at the highest dose tested (50).; assay type: functional, organism-based
Rattus norvegicus [33] = experiment: The compound was tested in vivo for DOPA accumulation in limbic system against reserpine-pretreated rats; I=inactive at the highest dose tested; assay type: functional, organism-based
Rattus norvegicus [34] = experiment: The compound was tested in vivo for DOPA accumulation in hemispheres (cortex) against reserpine-pretreated rats;I= inactive at the highest dose tested; assay type: functional, organism-based
D(3) dopamine receptor [35] = molecular target: T1, D(3) dopamine receptor; experiment: Binding affinity against Dopamine receptor D3 from CHO-K1 cells, using [3H]spiperone as the radioligand.; assay type: cell-based; conditions: read-out: Ki
D(2) dopamine receptor [36] = molecular target: T2, D(2) dopamine receptor; experiment: Binding affinity against Dopamine receptor D2 from CHO-K1 cells, using [3H]U-86,170 as the radioligand.; assay type: cell-based
Rattus norvegicus [37] = experiment: compound was tested in vivo for 5-HTP accumulation in corpus striatum against reserpine-pretreated rats, activity expressed as ED50;I= inactive at the highest dose tested; assay type: functional, organism-based
D(3) dopamine receptor [38] = molecular target: T1, D(3) dopamine receptor; experiment: The compound was tested in vitro for binding affinity against cloned mammalian Dopamine receptor D3 expressed in CHO cells by, using [3H]spiperone as radioligand; assay type: cell-based
Rattus norvegicus [39] = experiment: The compound was tested in vivo for DOPA accumulation in limbic system against reserpine-pretreated rats; P=significant partial reduction only at the highest dose tested (20).; assay type: functional, organism-based
Rattus norvegicus [40] = experiment: compound was tested in vivo for DOPA accumulation in corpus striatum against reserpine-pretreated rats; P=significant partial reduction only at the highest dose tested (20).; assay type: functional, organism-based
Rattus norvegicus [41] = experiment: compound was tested in vivo for 5-HTP accumulation in limbic system against reserpine-pretreated rats; P=significant partial reduction only at the highest dose tested (20).; assay type: functional, organism-based
Rattus norvegicus [42] = experiment: compound was tested in vivo for 5-HTP accumulation in corpus striatum against reserpine-pretreated rats, activity expressed as ED50; P=significant partial reduction only at the highest dose tested (20).; assay type: functional, organism-based
Rattus norvegicus [43] = experiment: compound was tested in vivo for 5-HTP accumulation in hemispheres (cortex) against reserpine-pretreated rats; P=significant partial reduction only at the highest dose tested (20).; assay type: functional, organism-based
Rattus norvegicus [44] = experiment: The compound was tested in vivo for DOPA accumulation in hemispheres (cortex) against reserpine-pretreated rats; I= inactive at the highest dose tested (20).; assay type: functional, organism-based

Work on CCCN(CCC)C1CCc2ccc3[nH]cc(C#N)c3c2C1 (stereo not given) yielded a T max [1] of 135 h, a Ki (D(3) dopamine receptor [2]) of 0.043 µM and a Tmax [3] of 2 h. It also gave an AUC (Rattus norvegicus [4]) of 1115 pM ml-1, a Ki (D(2) dopamine receptor [5]) of 0.024 µM and a bioavailability [6] of 54%. The ED50 (Rattus norvegicus [7]) was “Weak activity”, the AUC (Rattus norvegicus [8]) was 4849 pM ml-1 and the Ki [9] was 0.0004 µM. It also gave a Ki [10] of 0.0075 µM and a Ki ([11]; read-out: Ki) of 0.038 µM.

In the case of CCCN(CCC)C1CCc2ccc3[nH]cc(SC)c3c2C1 (stereo not given), the Ki (D(3) dopamine receptor [2]) is reported as 0.055 µM, the Ki (D(2) dopamine receptor [5]) is reported as 0.033 µM and the ED50 (Rattus norvegicus [12]) is reported as “inactive”. It also gave an ED50 (Rattus norvegicus [13]) of 10.2 µmol/kg, a Ki [9] of 0.013 µM and a Ki [10] of 0.018 µM. For the same molecule, the ED50 (Rattus norvegicus [14]) was 7.11 µmol/kg, the ED50 (Rattus norvegicus [15]) was “Weak activity” and the ED50 (Rattus norvegicus [16]) was 5.23 µmol/kg. The ED50 (Rattus norvegicus [17]) was 10 µmol/kg and the Ki ([11]; cho-k1) was “Not Active”.

In the case of CCCN(CCC)[C@@H]1CCc2ccc3[nH]c(C#N)cc3c2C1 [U-92,016-A], the ED50 (Rattus norvegicus [18]) is reported as “inactive”, the bioavailability [19] is reported as 63% and the AUC (Rattus norvegicus [20]) is reported as 2857 pM ml-1. The AUC (Rattus norvegicus [21]) was 1817 pM ml-1, the Tmax [22] was 75 h and the ED50 ratio [23] was 38. The Tmax [24] was 4 h.

For CCCN(CCC)C1CCc2ccc3c(c2C1)N(C=O)CC3 (stereo not given), the ED50 (Rattus norvegicus [25]) was “Weak activity”, the ED50 (Rattus norvegicus [26]) was “Weak activity” and the ED50 (Rattus norvegicus [27]) was “inactive”. For the same molecule, the ED50 (Rattus norvegicus [28]) was “inactive”, the ED50 (Rattus norvegicus [29]) was “inactive” and the ED50 (Rattus norvegicus [30]) was “inactive”.

In the case of CCCN(CCC)C1CCc2ccc3cc[nH]c3c2C1 (stereo not given), the ED50 (Rattus norvegicus [25]) is reported as “Weak activity”, the ED50 (Rattus norvegicus [27]) is reported as “inactive” and the ED50 (Rattus norvegicus [31]) is reported as “Weak activity”. The ED50 (Rattus norvegicus [32]) was “Weak activity”, the ED50 (Rattus norvegicus [28]) was “inactive” and the ED50 (Rattus norvegicus [29]) was “inactive”.

In the case of CCCN(CCC)C1CCc2ccc3c(c(C=O)cn3C)c2C1 (stereo not given), the ED50 (Rattus norvegicus [33]) is reported as “inactive”, the ED50 (Rattus norvegicus [34]) is reported as “inactive” and the Ki [9] is reported as 0.04 µM. For the same molecule, the Ki [10] was 0.334 µM, the Ki (D(3) dopamine receptor [35]) was 1.01 µM and the Ki (D(2) dopamine receptor [36]) was 0.51 µM. For the same molecule, the ED50 (Rattus norvegicus [37]) was “inactive” and the Ki ([11]; read-out: Ki) was 0.439 µM.

With CCCN(CCC)C1CCc2cc(F)c3c(c(C=O)cn3C)c2C1 (stereo not given) the Ki (D(3) dopamine receptor [38]) was 0.572 µM, the ED50 (Rattus norvegicus [39]) was “Weak activity” and the ED50 (Rattus norvegicus [40]) was “Weak activity”. The Ki (D(2) dopamine receptor [5]) was 1.03 µM, the ED50 (Rattus norvegicus [41]) was “Weak activity” and the ED50 (Rattus norvegicus [42]) was “Weak activity”. The Ki [9] was 0.028 µM, the Ki [10] was 0.419 µM and the ED50 (Rattus norvegicus [43]) was “Weak activity”. For the same molecule, the ED50 (Rattus norvegicus [44]) was “inactive” and the Ki ([11]; read-out: Ki) was 0.618 µM.
